{"source": "patent US10578608B1", "about": "“Tools to detect, track and target cancer cells in vivo” (The Regents of the University of California, priority 2015, dated 2020)", "key": {"MSI1 RNA": {"system": "MSI1 RNA", "assay": "MSI1 expression after ASO free uptake (q-RT-PCR)", "format": "cell-based, human", "details": "24 hours, MIA PaCa-2 cells", "method": "(FIG. 8 F to FIG. 8H) Real time PCR analysis of Msi expression following ASO free uptake in MIA PaCa-2 cells. MIA PaCa-2 cells were treated with 2 Gen 2.5 cEt ASOx target MSI1 or Control Gen 2.5 ASO for 24 hours, RNA was isolated and target knockdown (MSI1 RNA level) was determined by q-RT-PCR. IC50 values for each ASO were calculated using GraphPad Prism software; each treatment condition was performed in triplicate. (FIG. 8I) Colony formation assay in MSI1 ASO-treated MIA PaCa-2 cells after weekly delivery of control or MSI1 ASOs; colonies were counted after 4 weeks; n=3 for each ASO tested. (FIG. 8J) In vivo tracking of tumor volume in MSI1 ASO treated MIA PaCa-2 tumors with intratumoral delivery of control or MSI1 ASOs every day for 5 days followed by 2 days off; n=5 for each ASO tested. Nonlinear regression was used to determine the difference in slope between Control ASO and MSI1-ASO-1 (p<0.001). (FIG. 8K) In vivo tracking of tumor volume of primary KP^f/fC tumors with intratumoral delivery of control ASO or MSI1 ASOs following tumor establishment (n=4). […]\nTo identify human Msi ASO inhibitors, rapid throughput screens were performed to identify effective ASOs as previously described (Wang, J. C. Y. & Dick, J. E. Cancer stem cells: lessons from leukemia. Trends in Cell Biology 15, 494-501 (2005); Reya, T., Morrison, S. J., Clarke, M. F. & Weissman, I. L. Stem cells, cancer, and cancer stem cells. Nature 414(6859):105-11 (2001); Carroll, J. B. et al. Potent and Selective Antisense Oligonucleotides Targeting Single-Nucleotide Polymorphisms in the Huntington Disease Gene/Allele-Specific Silencing of Mutant Huntingtin. Molecular Therapy 19, 2178-2185 (2009); Samuel, V. T. et al. Targeting foxo1 in mice using antisense oligonucleotide improves hepatic and peripheral insulin action. […] Gene expression was assessed with taqman probes for MSI1 and MSI2. […] Colonies were counted 21 days after the first ASO treatment. […] Tumor measurements were recorded every 3 days. […]"}, "[1]": {"system": "REM2-KPf/fC pancreatic tumors", "assay": "In vivo drug therapy of tumor-bearing REM2-KPf/fC mice, reporter frequency by flow cytometry", "design": "species or system mouse", "details": "increasing doses (200 or 500 mg/kg IP)", "description": "The development of the reporter gave us a unique opportunity to determine whether it could be used as a new image based tool to identify therapy resistant cells in pancreatic cancer. The chemotherapeutic agent gemcitabine remains the standard of care for adjuvant treatment of pancreatic cancer and is the most commonly used single agent in the treatment of advanced disease. Despite this, clinical response rates to gemcitabine are below 10% and it fails to prevent relapse after surgery in 85% of patients. Gemcitabine was delivered to tumor-bearing REM2-KPf/fC mice in vivo at increasing doses to determine the composition of residual disease. […] Importantly, these experiments identify Msi reporter positive cells as the predominant gemcitabine resistant population.\n9-10 week old REM2-KP^f/fC mice were treated with Gemcitabine alone or in combination with Crizotinib or iBet762 for 6 days. On day 6, tumors were removed, dissociated (as described above), counted for total cellular content, stained with anti-mouse EpCAM antibody and analyzed for reporter expression by flow cytometry. Gemcitabine (Sigma, G6423) was resuspended in H2O at 20 mg/ml and delivered at 200 mg/kg or 500 mg/kg by IP injection twice over 6 days (on day 0 and 3). […]"}, "[2]": {"system": "Msi2 Reporter KPf/fC cells", "assay": "In vitro gemcitabine treatment with live imaging of Msi2 reporter KPf/fC cells", "format": "cell-based, mouse", "details": "10 μM gemcitabine, imaged up to 48 h"}, "pancreatic cancer": {"system": "pancreatic cancer", "details": "cited from earlier work"}, "blast crisis CML": {"system": "blast crisis CML", "assay": "In vivo identification of therapy-resistant residual leukemia cells after Gleevec", "design": "species or system mouse", "details": "Gleevec 150 mg/kg daily oral gavage, NSG mice", "method": "(FIG. 41A) The strategy used to track residual leukemia cells in vivo. KLS cells isolated from Msi2^GFP/Actb-DsRed mice were co-infected with BCR-ABL1 and NUP98-HOXA9 and subsequently transplanted into NOD-Scid IL2Rg^null (NSG) recipient mice. Fourteen days post-transplantation (D14), recipient mice were treated daily with Gleevec or vehicle alone (control) for […] and analyzed by flow cytometry on D20. (FIG. 41B) Average frequency of Msi2+ (% GFP^+) leukemia cells determined at various anatomic sites from mice with blast crisis CML (n=3 mice). (FIG. 41C) Extent of residual disease at different anatomic sites following Gleevec treatment.\nTo test this, REM2 mice were crossed with mice expressing dsRed under the control of a ubiquitous promoter (Vintersten et al., 2004). […]\nTo determine sites that harbor therapy-resistant cells, bone marrow-derived KLS cells were isolated and sorted from Msi2^GFP/Acb-DsRed mice and cultured in X-Vivo 15 media (Lonza) supplemented with 50 μM 2-mercaptoethanol, 10% (vol/vol) fetal bovine serum, SCF (100 ng/ml, R&D Systems) and TPO (20 ng/ml, R&D Systems). […] Fifteen days post-transplantation (D15), recipient mice were treated daily with Gleevec (150 mg/kg) or H2O (control) via oral gavage for five consecutive days (D15 to D19) and analyzed by flow cytometry on D20."}, "blast crisis CML cells": {"system": "blast crisis CML cells", "details": "versus 2-fold difference without treatment", "source_text": "To account for any differences in cell survival between GFP+ and GFP− cells that is solely due to differences in differentiation status, we specifically analyzed cell survival of GFP+ and GFP− leukemia cells within the lineage-negative (Lin−) fraction.\nTo account for any differences in cell survival between GFP^+ and GFP^− cells that is solely due to differences in differentiation status, we specifically analyzed cell survival of GFP^+ and GFP^− leukemia cells within the lineage-negative (Lin^−) fraction.\nCells were then washed and stained with antibodies against lineage markers. Apoptosis assays were performed by staining cells with Annexin-V (BD Pharmingen)."}}, "note": "“Also recorded” adds a separate entry of the source. Structures can show the parent of a compound that is named as a salt. k = constrained ethyl (cEt); d = 2'-deoxy (DNA)"}
{"compound": "5′-GGCTACTACGCCGTCA-3′ (sugars from the 5' end k3 d10 k3, backbone and methylation of C not given here) [Control ASOs]", "values": [{"measurement": "MSI1 expression in cell lines after ASO treatment", "setting": "MSI1 RNA", "value": "did not suppress MSI1 expression"}]}
{"compound": "5′-TTACATATGATACAGG-3′ (sugars from the 5' end k3 d10 k3, backbone and methylation of C not given here) [ASO-2]", "values": [{"measurement": "MSI1 expression in cell lines after ASO treatment", "setting": "MSI1 RNA", "value": "inhibited MSI1 expression"}]}
{"compound": "Nc1ccn([C@@H]2O[C@H](CO)[C@@H](O)C2(F)F)c(=O)n1", "note": "[gemcitabine, Gemcitabine]", "values": [{"measurement": "Effect on GFP+ (Msi2 reporter+) tumor cells", "setting": "[1]", "value": "resistant and remained viable; also recorded: preferential survival"}, {"measurement": "Effect on GFP− (Msi2 reporter−) tumor cells", "setting": "[1]", "value": "sensitive to gemcitabine and were preferentially eliminated"}, {"measurement": "Msi2 expression in Msi2 reporter− KPf/fC cells after in vitro treatment", "setting": "[2]", "value": "do not turn on Msi2 expression"}, {"measurement": "Patients in whom it fails to prevent relapse after surgery", "setting": "pancreatic cancer; adjuvant", "value": 85, "unit": "%"}, {"measurement": "Clinical response rates", "setting": "pancreatic cancer; pancreatic cancer patients", "value": "below 10%"}]}
{"compound": "Cc1ccc(NC(=O)c2ccc(CN3CCN(C)CC3)cc2)cc1Nc1nccc(-c2cccnc2)n1", "note": "[imatinib, imatinib mesylate]", "values": [{"measurement": "GFP+ leukemic cell population remaining following imatinib treatment", "setting": "blast crisis CML; calvarium, femur, tibia, sternum or pelvis", "value": "~37", "unit": "%"}, {"measurement": "GFP+ leukemic cell population remaining following imatinib treatment", "setting": "blast crisis CML; spleen", "value": "~60", "unit": "%"}, {"measurement": "Increase in difference in cell survival between Lin− GFP+ and Lin− GFP− cells following imatinib treatment", "setting": "blast crisis CML cells", "value": 3, "unit": "fold"}]}
